What all share (format): cell-based
In experiment [1] the test system is Hsp90-dependent client proteins (Her2, Raf, Akt) in MCF-7 cells. The experiment in a line: Western blot analyses of Hsp90-dependent client proteins from MCF-7 cell lysate. The note with it: MCF-7 cell lysates, FIG. 2B. On the procedure:
FIG. 1—Western blot analyses of Hsp90-dependent client proteins from MCF-7 breast cancer cell lysate upon treatment with biphenyl derivatives. H represents a concentration equal to 5-fold of the anti-proliferative activity. L represents a concentration ½ of the anti-proliferative activity. Geldanamycin (G, 0.5 μM) and dimethylsulfoxide (D, 100%) were employed as positive and negative controls.
FIGS. 2A & 2B—Western blot analyses of Hsp90-dependent client proteins from MCF-7 breast cancer cell lysate upon treatment with biphenyl derivatives. Concentrations (in μM) were indicated above each line. H represents a concentration equal to 5-fold of the anti-proliferative activity. L represents a concentration equal to 0.5-fold of the anti-proliferative activity. Geldanamycin (GDA, 0.5 μM) and dimethylsulfoxide (DMSO, 100%) were employed as positive and negative controls.
FIG. 3—Western blot analyses of Hsp90-dependent client proteins from MCF-7 breast cancer cell lysate upon treatment with compound 6l. Concentrations (in μM) were indicated above each line, and geldanamycin (GDA, 0.5 μM) and dimethylsulfoxide (DMSO) were employed as positive and negative controls.
MCF-7 cells were cultured as described above and treated with various concentrations of drug, GDA in DMSO (1% DMSO final concentration), or vehicle (DMSO) for 24 h. Cells were harvested in cold PBS and lysed in RIPA lysis buffer containing 1 mM PMSF, 2 mM sodium orthovanadate, and protease inhibitors on ice for 1 h. Lysates were clarified at 14000 g for 10 min at 4° C. Protein concentrations were determined using the Pierce BCA protein assay kit per the manufacturer's instructions. Equal amounts of protein (20 μg) were electrophoresed under reducing conditions, transferred to a nitrocellulose membrane, and immunoblotted with the corresponding specific antibodies. Membranes were incubated with an appropriate horseradish peroxidase-labeled secondary antibody, developed with a chemiluminescent substrate, and visualized.
(Immunoblotting shows a protein as a band on a membrane.)

Experiment [2] deals with SKBr3 (estrogen receptor negative, HER2 over-expressing breast cancer cells). The experiment in a line: Anti-proliferation assay (MTS/PMS, 72 h), SKBr3. The following applies: Homo sapiens. A digest of the protocol:
(§1)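 Cells seeded at 2000/well, attached overnight, then exposed to compound at varying concentrations (1% DMSO final) for 72 h at 37° C, 5% CO2. Viability by MTS/PMS, normalised to 1% DMSO controls as 100% proliferation; IC50 from separate triplicate experiments.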

Experiment [3] relates to MCF-7 (estrogen receptor positive breast cancer cells). The experiment is described as follows: Anti-proliferation assay (MTS/PMS, 72 h), MCF-7. The note with it: Homo sapiens. A digest of the protocol:
as §1

Where [4] appears, read: SK-BR-3, Table 6, para-para biphenyl core with substituted benzylamide.
[5] abbreviates: MCF7, Table 6, para-para biphenyl core with substituted benzylamide.
Where [6] appears, read: SK-BR-3, Table 3, substituted para-para biphenyl core.
Where [7] appears, read: MCF7, Table 3, substituted para-para biphenyl core.
Where [8] appears, read: SK-BR-3, Table 1, ortho, meta and para biphenyl cores.
The mark [9] stands for this setting: MCF7, Table 1, ortho, meta and para biphenyl cores.
Setting [10] is: SK-BR-3, Table 8, para-para biphenyl core with substituted biphenylamide group.
Where [11] appears, read: MCF7, Table 8, para-para biphenyl core with substituted biphenylamide group.
The mark [12] stands for this setting: SK-BR-3, Table 2, para-meta biphenyl core with substituted benzylamide.
Setting [13] is: MCF7, Table 2, para-meta biphenyl core with substituted benzylamide.

As to `CC(C)=CCc1cc(C(=O)Nc2cccc(-c3ccc(OC4CCN(C)CC4)cc3)c2)ccc1O` [Compound 3a], the “Her2, Raf-1 and p-Akt (western blot, concentration-dependent analysis)” value in experiment [1] is “degradation of Her2, Raf-1 and p-Akt”. Besides, the IC50 came to 2940 ± 110 nM in experiment [2] (SK-BR-3, Table 9, para-meta biphenyl core with prenylated benzylamide) and 2210 ± 60 nM in experiment [3] (MCF7, Table 9, para-meta biphenyl core with prenylated benzylamide).
Consider `CN1CCC(Oc2ccc(-c3ccc(NC(=O)c4cc5ccccc5s4)cc3)cc2)CC1` [Compound 47b, N-(4′-((1-methylpiperidin-4-yl)oxy)-[1,1′-biphenyl]-4-yl)benzo[b]thiophene-2-carboxamide], for which the half-maximal inhibitory concentration (IC50) in experiment [2] (setting [4]) is 1320 ± 230 nM; in experiment [3] (setting [5]), 2010 ± 580 nM.
Take `COc1cccc(-c2cc(C(=O)Nc3ccc(-c4ccc(OC5CCN(C)CC5)cc4)c(N)c3)ccc2OC)c1` [Compound 38c, N-(2-amino-4′-((1-methylpiperidin-4-yl)oxy)-[1,1′-biphenyl]-4-yl)-3′,6-dimethoxy-[1,1′-biphenyl]-3-carboxamide]: the concentration for half-maximal inhibition (IC50) in experiment [2] (setting [6]) is 3900 ± 180 nM; in experiment [3] (setting [7]), 2070 ± 230 nM.
As to `CN1CCC(Oc2cccc(-c3cccc(NC(=O)c4ccc(C(C)(C)C)cc4)c3)c2)CC1` [Compound 61i, 4-(tert-butyl)-N-(3′-((1-methylpiperidin-4-yl)oxy)-[1,1′-biphenyl]-3-yl)benzamide], the IC50 was 3360 ± 200 nM in experiment [2] (setting [8]) and 1930 ± 330 nM in experiment [3] (setting [9]).
As to `CN1CCC(Oc2ccc(-c3cccc(NC(=O)C45CC6CC(CC(C6)C4)C5)c3)cc2)CC1` [Compound 61a, N-(4′-((1-methylpiperidin-4-yl)oxy)-[1,1′-biphenyl]-3-yl)adamantane-1-carboxamide], the results for the half-maximal inhibitory concentration (IC50) in experiment [2] (setting [8]) and in experiment [3] (setting [9]) were 1250 ± 40 nM and 770 ± 80 nM, respectively.
Consider `COc1cccc(-c2cc(C(=O)Nc3ccc(-c4ccc(OC5CCN(C)CC5)cc4Cl)cc3)ccc2OC)c1` [Compound 29j, N-(2′-chloro-4′-((1-methylpiperidin-4-yl)oxy)-[1,1′-biphenyl]-4-yl)-3′,6-dimethoxy-[1,1′-biphenyl]-3-carboxamide], for which the IC50 in experiment [2] (setting [6]) came out at 3680 nM; in experiment [3] (setting [7]), 3120 nM.
With `COc1ccc(C(=O)Nc2ccc(-c3ccc(OC4CCN(C)CC4)cc3)cc2)cc1-c1ccccc1` [Compound 49a, 6-methoxy-N-(4′-((1-methylpiperidin-4-yl)oxy)-[1,1′-biphenyl]-4-yl)-[1,1′-biphenyl]-3-carboxamide], the IC50 came out at 510 ± 110 nM in experiment [2] (setting [10]) and 840 ± 10 nM in experiment [3] (setting [11]).
Turning to `COc1cccc(-c2cc(C(=O)Nc3cccc(-c4cccc(OC5CCN(C)CC5)c4)c3)ccc2OC)c1` [Compound 61d, 3′,6-dimethoxy-N-(3′-((1-methylpiperidin-4-yl)oxy)-[1,1′-biphenyl]-3-yl)-[1,1′-biphenyl]-3-carboxamide], the IC50 in experiment [2] (setting [8]) came out at 1620 ± 70 nM; in experiment [3] (setting [9]), 2000 ± 70 nM.
With `COc1cccc(-c2cc(C(=O)Nc3ccc(-c4ccc(OC5CCN(C)CC5)cc4)c(Cl)c3)ccc2OC)c1` [Compound 29k, N-(2-chloro-4′-((1-methylpiperidin-4-yl)oxy)-[1,1′-biphenyl]-4-yl)-3′,6-dimethoxy-[1,1′-biphenyl]-3-carboxamide], the values for the IC50 in experiment [2] (setting [6]) and in experiment [3] (setting [7]) were 2210 ± 180 nM and 3440 ± 210 nM, respectively.
As to `COc1cccc(-c2cc(C(=O)Nc3ccc(-c4ccc(OC5CCN(C)CC5)cc4)cc3NC(C)=O)ccc2OC)c1` [Compound 39d, N-(3-acetamido-4′-((1-methylpiperidin-4-yl)oxy)-[1,1′-biphenyl]-4-yl)-3′,6-dimethoxy-[1,1′-biphenyl]-3-carboxamide], the half-inhibitory concentration (IC50) in experiment [2] (setting [6]) is 3510 ± 560 nM; in experiment [3] (setting [7]) it was 1660 ± 590 nM.
Turning to `CN1CCC(Oc2ccc(-c3ccc(NC(=O)C45CC6CC(CC(C6)C4)C5)cc3)cc2)CC1` [Compound 61c, N-(4′-((1-methylpiperidin-4-yl)oxy)-[1,1′-biphenyl]-4-yl)adamantane-1-carboxamide], the IC50 in experiment [2] (setting [8]) came to 2070 ± 350 nM; in experiment [3] (setting [9]), 2770 ± 230 nM.
As to `CN1CCC(Oc2ccc(Nc3ccc(NC(=O)c4ccc(C(C)(C)C)cc4)cc3)cc2)CC1`, the IC50 in experiment [2] (SK-BR-3, Table 11, heteroatom linked biphenyl core) turned out to be 2170 ± 30 nM; in experiment [3] (MCF7, Table 11, heteroatom linked biphenyl core), 3370 ± 1630 nM.
`COc1ccc(C(=O)Nc2ccc(-c3ccc(OC4CCN(C)CC4)cc3)cc2)cc1-c1ccc(Cl)cc1` [Compound 49g, 4′-chloro-6-methoxy-N-(4′-((1-methylpiperidin-4-yl)oxy)-[1,1′-biphenyl]-4-yl)-[1,1′-biphenyl]-3-carboxamide]: the IC50 came out at 1060 ± 50 nM in experiment [2] (setting [10]) and 820 ± 130 nM in experiment [3] (setting [11]).
Take `CN1CCC(Oc2ccc(-c3cccc(NC(=O)c4ccc(Cl)cc4Cl)c3)cc2)CC1` [Compound 6n, 2,4-Dichloro-N-(4′-((1-methylpiperidin-4-yl)oxy)-[1,1′-biphenyl]-3-yl)benzamide]: the results for the IC50 in experiment [2] (setting [12]) and in experiment [3] (setting [13]) were 5910 ± 150 nM and 3930 ± 470 nM, respectively.
With `COc1ccc(C(=O)Nc2ccc(-c3ccc(OC4CCN(C)CC4)cc3)cc2)cc1-c1cccc(Cl)c1` [Compound 49f, 3′-chloro-6-methoxy-N-(4′-((1-methylpiperidin-4-yl)oxy)-[1,1′-biphenyl]-4-yl)-[1,1′-biphenyl]-3-carboxamide], the figures for the IC50 in experiment [2] (setting [10]) and in experiment [3] (setting [11]) were 330 ± 30 nM and 320 ± 90 nM, respectively.
`CC(=O)Oc1ccc(C(=O)Nc2ccc(-c3ccc(OC4CCN(C)CC4)cc3)cc2)cc1CC=C(C)C` [Compound 61j, 2-(3-methylbut-2-en-1-yl)-4-((4′-((1-methylpiperidin-4-yl)oxy)-[1,1′-biphenyl]-4-yl)carbamoyl)phenyl acetate]: the half-maximal inhibitory concentration (IC50) in experiment [2] (setting [8]) came to 1820 ± 210 nM; in experiment [3] (setting [9]) it was 1370 ± 180 nM.
For `CN1CCC(Oc2ccc(-c3ccc(NC(=O)c4cc5ccccc5[nH]4)cc3)cc2)CC1` [Compound 47a, N-(4′-((1-methylpiperidin-4-yl)oxy)-[1,1′-biphenyl]-4-yl)-1H-indole-2-carboxamide], the IC50 worked out at 640 ± 80 nM in experiment [2] (setting [4]) and 580 ± 20 nM in experiment [3] (setting [5]).
For the compound `COc1ccc(C(=O)Nc2ccc(-c3ccc(OC4CCN(C)CC4)cc3)cc2)cc1-c1cccc([N+](=O)[O-])c1` [Compound 49h, 6-methoxy-N-(4′-((1-methylpiperidin-4-yl)oxy)-[1,1′-biphenyl]-4-yl)-3′-nitro-[1,1′-biphenyl]-3-carboxamide], the half-inhibitory concentration (IC50) was determined as 400 ± 70 nM in experiment [2] (setting [10]) and 1090 ± 280 nM in experiment [3] (setting [11]).
With `COc1cccc(-c2cc(C(=O)Nc3ccc(-c4ccc(OC5CCN(C)CC5)c([N+](=O)[O-])c4)cc3)ccc2OC)c1` [Compound 34a, 3′,6-dimethoxy-N-(4′-((1-methylpiperidin-4-yl)oxy)-3′-nitro-[1,1′-biphenyl]-4-yl)-[1,1′-biphenyl]-3-carboxamide], the IC50 is 1950 nM in experiment [2] (setting [6]) and 1250 ± 280 nM in experiment [3] (setting [7]).
With `CN1CCC(Oc2ccc(-c3ccc(NC(=O)c4cccc(Cl)c4)cc3)cc2)CC1` [Compound 41h, 3-chloro-N-(4′-((1-methylpiperidin-4-yl)oxy)-[1,1′-biphenyl]-4-yl)benzamide], the 50% inhibitory concentration (IC50) was determined as 1940 ± 370 nM in experiment [2] (setting [4]) and 2830 ± 690 nM in experiment [3] (setting [5]).
For the compound `CN1CCC(Oc2ccc(-c3cccc(NC(=O)c4ccccc4Cl)c3)cc2)CC1` [Compound 6k, 2-Chloro-N-(4′-((1-methylpiperidin-4-yl)oxy)-[1,1′-biphenyl]-3-yl)benzamide], the half-inhibitory concentration (IC50) came to 7870 ± 480 nM in experiment [2] (setting [12]) and 5170 ± 490 nM in experiment [3] (setting [13]).
As for `CN1CCC(Oc2ccc(-c3ccc(NC(=O)c4ccccc4-c4ccccc4)cc3)cc2)CC1` [Compound 41q, N-(4′-((1-methylpiperidin-4-yl)oxy)-[1,1′-biphenyl]-4-yl)-[1,1′-biphenyl]-2-carboxamide], the half-maximal inhibitory concentration (IC50) in experiment [2] (setting [4]) is 6260 ± 1540 nM; in experiment [3] (setting [5]) it was 6670 ± 830 nM.
Turning to `CC(=O)Oc1ccc(C(=O)Nc2cccc(-c3cccc(OC4CCN(C)CC4)c3)c2)cc1CC=C(C)C` [Compound 61f, 2-(3-methylbut-2-en-1-yl)-4-((3′-((1-methylpiperidin-4-yl)oxy)-[1,1′-biphenyl]-3-yl)carbamoyl)phenyl acetate], the figures for the IC50 in experiment [2] (setting [8]) and in experiment [3] (setting [9]) were 1760 ± 160 nM and 1700 ± 210 nM, respectively.

Broadly, the IC50 is the point on the concentration scale where inhibition reaches its midpoint.

The values above are taken from US10689344B2, “Biphenylamide derivative Hsp90 inhibitors” (University of Kansas, priority 2013, dated 2020).
